Holding throughout (assay): Protein kinase inhibition assay
Assay type in all cases: biochemical

One assay deals with ASK1(h) (Homo sapiens, UniProt Q99683). As to conditions: read-out: percent residual activity of ASK1(h). The method, then: (§1) Certain compounds were tested for activity in protein kinase inhibition assays. All substrates were dissolved and diluted to working stocks in de-ionized water, apart from histone H1 (10× working stock in 20 mM MOPS pH 7.0), PDKtide (10× working stock in 50 mM Tris pH 7.0) ATF2 (which is typically stored at a 20× working stock in 50 mM Tris pH 7.5, 150 mM NaCl, 0.1 mM EGTA, 0.03% Brij-35, 50% glycerol, 1 mM benzamidine, 0.2 mM PMSF and 0.1% R-mercaptoethanol), KKLNRTLSFAEPG (SEQ ID NO:203) and RRRLSFAEPG (SEQ ID NO:204) (50 mM HEPES pH 7.4) and GGEEEEYFELVKKKK (SEQ ID NO:205) (20 mM MOPS pH 7.0). All kinases were pre-diluted to a 10× working concentration prior to addition into the assay. The composition of the dilution buffer for each kinase is detailed below.
(§2) In a final reaction volume of 25 μl, ASK1 (h) (5-10 mU) is incubated with 8 mM MOPS pH 7.0, 0.2 mM EDTA, 0.33 mg/ml myelin basic protein, 10 mM MgAcetate and [gamma-33P-ATP] (specific activity approx. 500 cpm/pmol, concentration as required). The reaction is initiated by the addition of the MgATP mix. After incubation for 40 minutes at room temperature, the reaction is stopped by the addition of 5 μl of a 3% phosphoric acid solution. 10 μl of the reaction is then spotted onto a P30 filtermat and washed three times for 5 minutes in 75 mM phosphoric acid and once in methanol prior to drying and scintillation counting.

The target in a further assay is SAPK2b(h) (Homo sapiens, UniProt Q15759). The settings on record: read-out: percent residual activity of SAPK2b(h). The method, then: as §1
as §2, with “SAPK2b” for “ASK1”, “25” for “8”, “Tris” for “MOPS”, “7.5, 0.02” for “7.0, 0.2”, “EGTA,” for “EDTA,”

Another assay concerns the target IR(h) (Homo sapiens, UniProt P06213). As to conditions: read-out: percent residual activity of IR(h). As for the experimental part:
as §1
In a final reaction volume of 25 μl, IR (h) (5-10 mU) is incubated with 50 mM Tris pH 7.5, 0.1 mM EGTA, 0.1 mM Na3VO4, 0.1% R-mercaptoethanol, 250 μM KKSRGDYMTMQIG (SEQ ID NO:210), 10 mM MnCl2, 10 mM MgAcetate and [gamma-33P-ATP] (specific activity approx. 500 cpm/pmol, concentration as required). The reaction is initiated by the addition of the MgATP mix. After incubation for 40 minutes at room temperature, the reaction is stopped by the addition of 5 μl of a 3% phosphoric acid solution. […]

A further assay concerns the target PAK4(h) (Homo sapiens, UniProt O96013). The settings on record: read-out: percent residual activity of PAK4(h). As for the experimental part:
as §1
as §2, with “PAK4” for “ASK1”, “0.8” for “0.33”

The target in the next assay is Lck(h) (Homo sapiens, UniProt P06239). The settings on record: read-out: percent residual activity of Lck(h). The method, then: as §1
In a final reaction volume of 25 μl, Lck (h) (5-10 mU) is incubated with 50 mM Tris pH 7.5, 0.1 mM EGTA, 0.1 mM Na3VO4, 250 μM KVEKIGEGTYGVVYK (SEQ ID NO:211) (Cdc2 peptide), 10 mM MgAcetate and [gamma-33P-ATP] (specific activity approx. 500 cpm/pmol, concentration as required). The reaction is initiated by the addition of the MgATP mix. After incubation for 40 minutes at room temperature, the reaction is stopped by the addition of 5 μl of a 3% phosphoric acid solution. […]

For the next assay, the target named is PKCι(h) (Homo sapiens, UniProt P41743). As to conditions: read-out: percent residual activity of PKCι(h). As for the experimental part: as §1
In a final reaction volume of 25 μl, PKCι (h) (5-10 mU) is incubated with 20 mM HEPES pH 7.4, 0.03%. Triton X-100, 50 μM ERMRPRKRQGSVRRRV (SEQ ID NO:224), 10 mM MgAcetate and [gamma-33P-ATP] (specific activity approx. 500 cpm/pmol, concentration as required). The reaction is initiated by the addition of the MgATP mix. After incubation for 40 minutes at room temperature, the reaction is stopped by the addition of 5 μl of a 3% phosphoric acid solution. […]

Chain of Lck(h) (P06239 whole entry): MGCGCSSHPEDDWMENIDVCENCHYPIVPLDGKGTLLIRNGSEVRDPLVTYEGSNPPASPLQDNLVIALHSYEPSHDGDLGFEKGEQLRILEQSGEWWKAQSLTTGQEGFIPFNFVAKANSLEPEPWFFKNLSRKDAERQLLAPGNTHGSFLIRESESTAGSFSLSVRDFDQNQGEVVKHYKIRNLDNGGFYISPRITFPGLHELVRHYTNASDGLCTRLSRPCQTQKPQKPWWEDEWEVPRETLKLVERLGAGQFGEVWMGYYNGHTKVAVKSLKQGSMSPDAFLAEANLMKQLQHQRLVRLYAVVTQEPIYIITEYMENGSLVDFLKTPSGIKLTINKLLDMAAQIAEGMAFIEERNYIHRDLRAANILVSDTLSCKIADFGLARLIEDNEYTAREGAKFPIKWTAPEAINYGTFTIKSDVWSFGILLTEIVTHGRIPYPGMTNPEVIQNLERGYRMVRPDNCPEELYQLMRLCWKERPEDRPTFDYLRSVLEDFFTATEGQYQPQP
Chain of IR(h) (P06213 28-1382): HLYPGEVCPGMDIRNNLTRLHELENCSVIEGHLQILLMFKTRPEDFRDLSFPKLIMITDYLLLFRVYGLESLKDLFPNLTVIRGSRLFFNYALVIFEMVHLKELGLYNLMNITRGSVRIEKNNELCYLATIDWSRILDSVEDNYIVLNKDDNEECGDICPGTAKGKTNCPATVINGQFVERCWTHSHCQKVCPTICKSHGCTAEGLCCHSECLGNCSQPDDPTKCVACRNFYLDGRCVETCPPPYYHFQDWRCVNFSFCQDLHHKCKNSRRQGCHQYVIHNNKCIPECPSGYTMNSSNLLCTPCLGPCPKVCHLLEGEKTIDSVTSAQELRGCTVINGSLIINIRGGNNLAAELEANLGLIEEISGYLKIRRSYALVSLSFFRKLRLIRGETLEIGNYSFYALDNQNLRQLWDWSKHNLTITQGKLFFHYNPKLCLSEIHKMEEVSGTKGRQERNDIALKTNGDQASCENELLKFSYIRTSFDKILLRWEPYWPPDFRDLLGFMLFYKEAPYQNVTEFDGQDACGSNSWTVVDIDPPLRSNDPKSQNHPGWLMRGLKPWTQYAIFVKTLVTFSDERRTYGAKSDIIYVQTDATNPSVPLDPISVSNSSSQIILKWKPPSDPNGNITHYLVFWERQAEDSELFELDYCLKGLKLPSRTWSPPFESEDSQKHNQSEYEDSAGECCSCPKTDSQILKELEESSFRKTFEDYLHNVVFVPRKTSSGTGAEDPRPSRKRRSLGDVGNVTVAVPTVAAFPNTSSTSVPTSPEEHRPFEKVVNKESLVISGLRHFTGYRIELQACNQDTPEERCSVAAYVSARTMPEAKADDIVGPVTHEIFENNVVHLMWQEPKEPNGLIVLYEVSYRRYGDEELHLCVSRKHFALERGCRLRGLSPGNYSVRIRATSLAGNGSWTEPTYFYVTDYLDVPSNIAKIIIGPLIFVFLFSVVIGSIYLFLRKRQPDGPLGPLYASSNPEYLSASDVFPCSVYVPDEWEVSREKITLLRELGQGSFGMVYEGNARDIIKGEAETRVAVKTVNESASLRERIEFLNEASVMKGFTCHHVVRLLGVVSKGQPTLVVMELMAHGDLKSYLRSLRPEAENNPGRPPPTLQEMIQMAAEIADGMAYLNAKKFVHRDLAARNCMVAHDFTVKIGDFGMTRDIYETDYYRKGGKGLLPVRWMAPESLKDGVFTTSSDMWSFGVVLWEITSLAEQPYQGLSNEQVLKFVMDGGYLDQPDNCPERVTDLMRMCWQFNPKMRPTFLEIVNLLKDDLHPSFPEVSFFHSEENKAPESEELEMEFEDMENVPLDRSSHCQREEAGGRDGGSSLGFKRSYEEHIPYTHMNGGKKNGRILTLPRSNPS
Chain of PAK4(h) (O96013 whole entry): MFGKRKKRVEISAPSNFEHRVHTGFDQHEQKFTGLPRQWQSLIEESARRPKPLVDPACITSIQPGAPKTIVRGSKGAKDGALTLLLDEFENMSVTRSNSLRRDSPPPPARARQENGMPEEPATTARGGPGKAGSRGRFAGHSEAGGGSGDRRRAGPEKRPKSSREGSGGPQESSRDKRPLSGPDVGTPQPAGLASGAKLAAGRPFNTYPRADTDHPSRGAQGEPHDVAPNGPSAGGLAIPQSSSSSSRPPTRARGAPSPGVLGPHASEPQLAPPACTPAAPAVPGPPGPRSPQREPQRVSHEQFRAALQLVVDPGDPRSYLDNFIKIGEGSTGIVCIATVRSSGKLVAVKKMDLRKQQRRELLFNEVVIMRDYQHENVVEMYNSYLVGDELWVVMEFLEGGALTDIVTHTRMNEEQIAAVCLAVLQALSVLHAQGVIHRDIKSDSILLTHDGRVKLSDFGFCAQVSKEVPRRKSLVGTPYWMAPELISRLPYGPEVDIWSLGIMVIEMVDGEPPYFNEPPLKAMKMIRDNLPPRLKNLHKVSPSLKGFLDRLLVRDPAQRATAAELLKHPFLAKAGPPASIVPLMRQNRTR
Chain of SAPK2b(h) (Q15759 whole entry): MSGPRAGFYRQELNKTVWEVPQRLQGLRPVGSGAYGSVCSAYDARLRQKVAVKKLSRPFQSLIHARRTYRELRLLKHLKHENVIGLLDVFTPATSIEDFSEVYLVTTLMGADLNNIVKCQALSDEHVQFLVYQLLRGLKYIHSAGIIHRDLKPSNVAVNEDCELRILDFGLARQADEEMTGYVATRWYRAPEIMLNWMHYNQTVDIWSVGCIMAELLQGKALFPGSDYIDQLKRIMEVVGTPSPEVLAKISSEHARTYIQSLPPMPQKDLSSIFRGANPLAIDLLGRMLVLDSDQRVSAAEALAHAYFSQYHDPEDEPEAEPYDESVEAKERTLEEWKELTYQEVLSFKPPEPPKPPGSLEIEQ
Chain of ASK1(h) (Q99683 whole entry): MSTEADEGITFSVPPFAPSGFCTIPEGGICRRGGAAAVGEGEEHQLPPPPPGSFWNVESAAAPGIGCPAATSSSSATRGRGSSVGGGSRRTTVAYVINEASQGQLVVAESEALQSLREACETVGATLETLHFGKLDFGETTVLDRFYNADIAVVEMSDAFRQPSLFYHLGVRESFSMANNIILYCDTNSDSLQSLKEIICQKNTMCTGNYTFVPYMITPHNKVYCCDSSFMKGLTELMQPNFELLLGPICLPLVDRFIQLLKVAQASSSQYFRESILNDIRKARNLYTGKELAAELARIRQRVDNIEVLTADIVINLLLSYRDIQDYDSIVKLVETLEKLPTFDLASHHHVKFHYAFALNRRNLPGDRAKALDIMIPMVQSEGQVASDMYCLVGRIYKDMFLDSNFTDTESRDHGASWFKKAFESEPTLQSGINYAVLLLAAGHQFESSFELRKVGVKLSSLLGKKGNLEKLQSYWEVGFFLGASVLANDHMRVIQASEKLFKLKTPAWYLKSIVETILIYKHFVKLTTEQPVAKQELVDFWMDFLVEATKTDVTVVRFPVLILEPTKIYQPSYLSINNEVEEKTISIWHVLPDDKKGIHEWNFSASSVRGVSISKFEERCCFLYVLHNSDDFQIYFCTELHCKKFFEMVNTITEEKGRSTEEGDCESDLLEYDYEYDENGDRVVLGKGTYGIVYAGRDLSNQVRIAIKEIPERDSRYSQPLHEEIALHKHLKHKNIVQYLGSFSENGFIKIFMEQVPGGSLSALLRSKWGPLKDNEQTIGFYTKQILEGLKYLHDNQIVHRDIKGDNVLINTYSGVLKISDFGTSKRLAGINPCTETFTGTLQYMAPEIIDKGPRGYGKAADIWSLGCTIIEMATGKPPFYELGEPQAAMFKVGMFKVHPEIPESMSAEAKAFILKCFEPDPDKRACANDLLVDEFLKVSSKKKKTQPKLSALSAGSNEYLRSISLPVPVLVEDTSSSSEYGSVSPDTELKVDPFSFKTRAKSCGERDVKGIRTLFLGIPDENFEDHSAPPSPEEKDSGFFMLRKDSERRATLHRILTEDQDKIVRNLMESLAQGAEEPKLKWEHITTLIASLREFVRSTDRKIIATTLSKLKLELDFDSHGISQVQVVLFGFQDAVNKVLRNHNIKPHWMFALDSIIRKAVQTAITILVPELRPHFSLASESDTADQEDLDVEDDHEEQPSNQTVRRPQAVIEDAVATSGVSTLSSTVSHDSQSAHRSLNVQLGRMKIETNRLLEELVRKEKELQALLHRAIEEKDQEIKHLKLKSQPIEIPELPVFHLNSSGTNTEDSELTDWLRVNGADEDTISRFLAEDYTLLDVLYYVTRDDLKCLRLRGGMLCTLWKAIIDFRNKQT
Chain of PKCι(h) (P41743 whole entry): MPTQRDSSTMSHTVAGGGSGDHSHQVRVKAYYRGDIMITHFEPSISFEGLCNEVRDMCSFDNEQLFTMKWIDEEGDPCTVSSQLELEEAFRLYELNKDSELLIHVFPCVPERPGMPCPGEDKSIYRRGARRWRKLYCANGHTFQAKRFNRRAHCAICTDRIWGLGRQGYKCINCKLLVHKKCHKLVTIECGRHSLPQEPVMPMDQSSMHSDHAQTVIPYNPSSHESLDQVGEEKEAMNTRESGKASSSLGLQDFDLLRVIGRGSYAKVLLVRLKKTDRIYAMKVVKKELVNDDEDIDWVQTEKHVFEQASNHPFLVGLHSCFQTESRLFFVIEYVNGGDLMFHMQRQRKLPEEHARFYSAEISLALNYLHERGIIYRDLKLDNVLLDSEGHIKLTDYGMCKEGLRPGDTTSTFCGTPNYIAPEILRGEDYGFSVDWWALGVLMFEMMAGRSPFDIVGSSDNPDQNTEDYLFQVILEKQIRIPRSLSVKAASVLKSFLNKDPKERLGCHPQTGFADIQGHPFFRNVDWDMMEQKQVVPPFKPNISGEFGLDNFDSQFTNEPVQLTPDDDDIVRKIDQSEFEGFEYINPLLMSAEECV

On to `CN1CCCC1CCNC(=O)c1cn2c3c(c(N4CCC(c5cnccn5)C4)c(F)cc3c1=O)Oc1cc3ccccc3cc1-2` (stereo not drawn) [Compound A-1], for which the remaining activity at 2.5 µM came out at 98% at ASK1(h); 70% on SAPK2b(h); 96% at IR(h); 99% at PAK4(h); 170% at Lck(h); 72% at PKCι(h).

Regarding `CC(=O)N1CCN(c2ccc3c(=O)c(C(=O)NCCN4CCCC4)c4n(C)c5ccccc5n4c3n2)CC1` [Compound B-1], the remaining activity at 2.5 µM at ASK1(h) came to 110%; on SAPK2b(h), 94%; on IR(h), 110%; at PAK4(h) it was 96%; at Lck(h), 115%; at PKCι(h), 95%.

Values taken from US20070117770A1, “Human ribosomal DNA (rDNA) and ribosomal RNA (rRNA) nucleic acids and uses thereof” (Cylene Pharmaceuticals, Inc., priority 2005, published 2007).
